{"source": "patent US12411142B2", "about": "“Method for measuring the trimethylamine n-oxide production capacity in an individual” (NATIONAL TAIWAN UNIVERSITY, priority 2018, dated 2025)", "experiment": "Pharmacokinetic study of the oral carnitine challenge test (OCCT)", "format": "in vivo, human", "conditions": "13 volunteers", "description": "Oral carnitine challenge test (OCCT): All the participants fasted overnight (>8 hours) before the OCCT. Fasting blood and spot urine samples were collected as baseline, and three tablets of L-carnitine fumarate (GNC) were then administered orally to the participants. Subsequently, the participants underwent time-series blood drawings with concurrent spot urine collections at 24 hours and 48 hours after the oral carnitine challenge. The participants were requested to provide urine samples within 2 hours of blood sample collections. All the participants were asked to avoid red meat, seafood and any medication during the period of the carnitine challenge test. The plasma and urine samples were aliquoted after centrifugation at 3000 rpm and stored in a freezer at −20° C. Ten carnitine tablets (GNC) were examined through HPLC to verify the amount of L-carnitine used in the OCCT. The mean dose of carnitine fumarate in each tablet was 693.5 (SD±63.2) mg (≈400 mg L-carnitine/tablet).\nPharmacokinetic study of plasma TMAO by oral administration of carnitine: Thirteen independent volunteers were recruited for a pharmacokinetic study of the OCCT. After the oral carnitine challenge, blood samples were collected at 4, 8, 12, 24, 36 and 48 hours. Six of the volunteers agreed to participate in the same pharmacokinetic test again 3 months later. All the volunteers signed informed consent waivers provided by the Institutional Review Board of National Taiwan University Hospital.\nPlasma TMAO peaked in the interval between 24 hours and 48 hours of the OCCT: This example assumed that TMAO formation in blood occurred at approximately 24 hours of the OCCT based on the time required for bowel transit, microbial catabolism and the enzymatic reaction of hepatic FMO3 to convert the ingested carnitine into plasma TMAO. The example performed a pharmacokinetic study of the OCCT to confirm this hypothesis (FIG. 4). In the study, 13 participants received seven blood tests at indicated time points after ingestion of three tablets of L-carnitine fumarate (General Nutrition Centers (GNC), Pennsylvania, USA). […]", "key": {"[1]": {"conditions": "three tablets of L-carnitine fumarate orally"}}}
{"smiles": "C[N+](C)(C)C[C@H](O)CC(=O)[O-].O=C(O)/C=C/C(=O)O", "note": "[L-carnitine fumarate]", "values": [{"measurement": "time at which plasma carnitine level peaked after OCCT", "setting": "three tablets of L-carnitine fumarate (GNC, approximately 1200 mg L-carnitine) orally", "value": 4, "unit": "h"}, {"measurement": "plasma TMA level after OCCT", "setting": "[1]", "value": "very low concentration"}, {"measurement": "plasma γ-butyrobetaine level after OCCT", "setting": "[1]", "value": "very low concentration"}]}
